Measurements: PubChem BioAssay (NCI)
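Following 48 hours of exposure in 96-well plates, responses at five concentrations were used to interpolate endpoints linearly. GI50: concentration for 50% inhibition of growth. TGI is the concentration that stops growth completely.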

How the values were obtained:
Assay in all cases: NCI tumour cell line growth inhibition, 48 h; in the data active = GI50 below about 0.43 µM; inactive = the rest
786-0 renal = test system: 786-0 renal
A498 renal = test system: A498 renal
A549 NSCLC = test system: A549 NSCLC
ACHN renal = test system: ACHN renal
BT-549 breast = test system: BT-549 breast
CAKI-1 renal = test system: CAKI-1 renal
CCRF-CEM leukemia = test system: CCRF-CEM leukemia
COLO 205 colon = test system: COLO 205 colon
DU-145 prostate = test system: DU-145 prostate
EKVX NSCLC = test system: EKVX NSCLC
HCC-2998 colon = test system: HCC-2998 colon
HCT-116 colon = test system: HCT-116 colon
HCT-15 colon = test system: HCT-15 colon
HL-60(TB) leukemia = test system: HL-60(TB) leukemia
HOP-92 NSCLC = test system: HOP-92 NSCLC
HS 578T breast = test system: HS 578T breast
HT29 colon = test system: HT29 colon
K-562 leukemia = test system: K-562 leukemia
KM12 colon = test system: KM12 colon
LOX IMVI melanoma = test system: LOX IMVI melanoma
MALME-3M melanoma = test system: MALME-3M melanoma
MCF7 breast = test system: MCF7 breast
MDA-MB-231 breast = test system: MDA-MB-231 breast
MDA-MB-435 = test system: MDA-MB-435
MOLT-4 leukemia = test system: MOLT-4 leukemia
NCI-H226 lung = test system: NCI-H226 lung
NCI-H23 lung = test system: NCI-H23 lung
NCI-H460 lung = test system: NCI-H460 lung
NCI/ADR-RES ovarian = test system: NCI/ADR-RES ovarian
OVCAR-4 ovarian = test system: OVCAR-4 ovarian
OVCAR-8 ovarian = test system: OVCAR-8 ovarian
PC-3 prostate = test system: PC-3 prostate
RPMI-8226 leukemia = test system: RPMI-8226 leukemia
RXF 393 renal = test system: RXF 393 renal
SF-268 CNS = test system: SF-268 CNS
SF-295 CNS = test system: SF-295 CNS
SF-539 CNS = test system: SF-539 CNS
SK-MEL-2 melanoma = test system: SK-MEL-2 melanoma
SK-MEL-28 melanoma = test system: SK-MEL-28 melanoma
SK-MEL-5 melanoma = test system: SK-MEL-5 melanoma
SK-OV-3 ovarian = test system: SK-OV-3 ovarian
SN12C renal = test system: SN12C renal
SNB-19 CNS = test system: SNB-19 CNS
SNB-75 CNS = test system: SNB-75 CNS
SW-620 colon = test system: SW-620 colon
T-47D breast = test system: T-47D breast
TK-10 renal = test system: TK-10 renal
U251 CNS = test system: U251 CNS
UACC-257 melanoma = test system: UACC-257 melanoma
UACC-62 melanoma = test system: UACC-62 melanoma
UO-31 renal = test system: UO-31 renal
HOP-62 NSCLC = test system: HOP-62 NSCLC
IGROV1 ovarian = test system: IGROV1 ovarian
M14 melanoma = test system: M14 melanoma
NCI-H522 lung = test system: NCI-H522 lung
OVCAR-3 ovarian = test system: OVCAR-3 ovarian
OVCAR-5 ovarian = test system: OVCAR-5 ovarian

COc1ccccc1C(=O)OCC1CCCN2CCCCC12 (configuration not stated)
44.2 µM: TGI (HL-60(TB) leukemia)
73.1 µM: TGI (U251 CNS)
> 100 µM: TGI (786-0 renal) | TGI (A498 renal) | TGI (A549 NSCLC) | TGI (ACHN renal) | TGI (CAKI-1 renal) | TGI (COLO 205 colon) | TGI (DU-145 prostate) | TGI (EKVX NSCLC) | TGI (HCT-116 colon) | TGI (HCT-15 colon) | TGI (HOP-92 NSCLC) | TGI (HS 578T breast) | TGI (K-562 leukemia) | TGI (MALME-3M melanoma) | TGI (MCF7 breast) | TGI (MDA-MB-435) | TGI (MOLT-4 leukemia) | TGI (NCI-H226 lung) | TGI (NCI-H23 lung) | TGI (NCI/ADR-RES ovarian) | TGI (OVCAR-4 ovarian) | TGI (PC-3 prostate) | TGI (RPMI-8226 leukemia) | TGI (SF-268 CNS) | TGI (SF-295 CNS) | TGI (SF-539 CNS) | TGI (SK-MEL-2 melanoma) | TGI (SK-MEL-5 melanoma) | TGI (SK-OV-3 ovarian) | TGI (SNB-19 CNS) | TGI (SW-620 colon) | TGI (TK-10 renal) | TGI (UACC-257 melanoma) | TGI (UACC-62 melanoma) | TGI (UO-31 renal)
45.8 µM: TGI (OVCAR-8 ovarian)
46.1 µM: TGI (CCRF-CEM leukemia)
73.6 µM: TGI (RXF 393 renal)
32.2 µM: TGI (HT29 colon)
42.2 µM: TGI (HCC-2998 colon)
54.6 µM: TGI (BT-549 breast)
65.7 µM: TGI (SK-MEL-28 melanoma)
36.6 µM: TGI (KM12 colon)
61.6 µM: TGI (MDA-MB-231 breast)
96 µM: TGI (SN12C renal)
63.4 µM: TGI (SNB-75 CNS)
34.8 µM: TGI (LOX IMVI melanoma)
81.7 µM: TGI (T-47D breast)
52 µM: TGI (NCI-H460 lung)

O=C(Oc1c(Cl)cc(Cl)cc1Cl)c1ccccc1Nc1ccnc(C(F)(F)F)c1
> 100 µM: TGI (CAKI-1 renal) | TGI (COLO 205 colon) | TGI (HL-60(TB) leukemia) | TGI (HOP-92 NSCLC) | TGI (HT29 colon) | TGI (IGROV1 ovarian) | TGI (K-562 leukemia) | TGI (MCF7 breast) | TGI (NCI-H460 lung) | TGI (NCI-H522 lung) | TGI (OVCAR-3 ovarian) | TGI (PC-3 prostate) | TGI (RXF 393 renal) | TGI (SF-268 CNS) | TGI (SF-295 CNS) | TGI (SK-MEL-2 melanoma) | TGI (SK-MEL-28 melanoma) | TGI (SK-MEL-5 melanoma) | TGI (SNB-19 CNS) | TGI (SW-620 colon) | TGI (T-47D breast) | TGI (UO-31 renal)
57.3 µM: TGI (UACC-257 melanoma)
6.98 µM: TGI (BT-549 breast)
8.8 µM: TGI (HOP-62 NSCLC)
28.4 µM: TGI (TK-10 renal)
6.06 µM: TGI (UACC-62 melanoma)
6.3 µM: TGI (NCI-H23 lung)
24.6 µM: TGI (NCI-H226 lung)
4.99 µM: TGI (M14 melanoma)
10.6 µM: TGI (HCT-15 colon)
49.9 µM: TGI (OVCAR-8 ovarian)
71.5 µM: TGI (A549 NSCLC)
13 µM: TGI (EKVX NSCLC)
4.28 µM: TGI (HCT-116 colon)
11.1 µM: TGI (786-0 renal)
16.5 µM: TGI (OVCAR-5 ovarian)
14.5 µM: TGI (SN12C renal)
6.52 µM: TGI (ACHN renal)
5.13 µM: TGI (LOX IMVI melanoma)
32.5 µM: TGI (KM12 colon)
9.32 µM: TGI (U251 CNS)
18.9 µM: TGI (MDA-MB-231 breast)
inactive: GI50 (786-0 renal) 2.95 µM | GI50 (A549 NSCLC) 3.9 µM | GI50 (ACHN renal) 2.46 µM | GI50 (BT-549 breast) 2.42 µM | GI50 (CAKI-1 renal) 7.12 µM | GI50 (COLO 205 colon) 6.24 µM | GI50 (EKVX NSCLC) 3.31 µM | GI50 (HCT-116 colon) 1.72 µM | GI50 (HCT-15 colon) 2.7 µM | GI50 (HL-60(TB) leukemia) 3.97 µM | GI50 (HOP-62 NSCLC) 2.66 µM | GI50 (HOP-92 NSCLC) > 100 µM | GI50 (HT29 colon) 4.59 µM | GI50 (IGROV1 ovarian) > 100 µM | GI50 (K-562 leukemia) 2.42 µM | GI50 (KM12 colon) 4.11 µM | GI50 (LOX IMVI melanoma) 1.99 µM | GI50 (M14 melanoma) 2.13 µM | GI50 (MCF7 breast) 4.68 µM | GI50 (MDA-MB-231 breast) 3.25 µM | GI50 (NCI-H226 lung) 5.93 µM | GI50 (NCI-H23 lung) 2.59 µM | GI50 (NCI-H460 lung) 3.38 µM | GI50 (NCI-H522 lung) 5.7 µM | GI50 (OVCAR-3 ovarian) 4.3 µM | GI50 (OVCAR-5 ovarian) 4.1 µM | GI50 (OVCAR-8 ovarian) 3.04 µM | GI50 (PC-3 prostate) 15 µM | GI50 (RXF 393 renal) 9.47 µM | GI50 (SF-268 CNS) 3.92 µM | GI50 (SF-295 CNS) 4.16 µM | GI50 (SK-MEL-2 melanoma) 31.1 µM | GI50 (SK-MEL-28 melanoma) 24.1 µM | GI50 (SK-MEL-5 melanoma) 3.07 µM | GI50 (SN12C renal) 3.07 µM | GI50 (SNB-19 CNS) 7.07 µM | GI50 (SW-620 colon) 4.59 µM | GI50 (T-47D breast) 8.55 µM | GI50 (TK-10 renal) 3.41 µM | GI50 (U251 CNS) 3.04 µM | GI50 (UACC-257 melanoma) 12.2 µM | GI50 (UACC-62 melanoma) 1.74 µM | GI50 (UO-31 renal) 41 µM
